Assay results from patent publication US20250195681A1, “ANTI-GPC3 ANTIBODY DRUG CONJUGATE AND USE THEREOF” (DUALITY BIOLOGICS (SUZHOU) CO., LTD., priority 2022, published 2025).

What was measured:
NCI-N87 = test: In vitro proliferation inhibition of small molecule payloads, CTG, 6 days (3.3); format: cell-based; conditions: Homo sapiens, NCI-N87, 144 h, read-out: Abs-IC50 NCI-N87
Method: (§1) To detect the in vitro proliferation inhibitory activity of the drug compounds on NCI-N87 and Colo205 tumor cells. Cells were treated with different concentrations of the compounds in vitro, and after 6 days of culture, cell proliferation was detected using the CTG (CellTiter-Glo® Luminescent Cell Viability Assay, Promega, Cat. No.: G7558) reagent. The IC50 value was used to assess the in vitro activity of the compounds.
(§2) 1. Cell culture: NCI-N87 and Colo205 cells were cultured in RPMI-1640 medium containing 10% FBS.
(§3) 2. Cell preparation: NCI-N87 and Colo205 cells in the logarithmic growth phase were washed once with PBS, then digested with 2-3 mL of trypsin for 2-3 minutes. Once the cells were fully digested, 10-15 mL of cell culture medium was added to wash off the digested cells. The mixture was then centrifuged at 1000 rpm for 5 minutes, then the supernatant was discarded, and the cells were resuspended in 10-20 mL of cell culture medium to prepare a single-cell suspension.
(§4) 3. Cell plating: The single-cell suspension of NCI-N87 and Colo205 was mixed well, and the density of viable cells was adjusted to 6×10^4 cells/mL using a cell culture medium. The density-adjusted cell suspension was mixed well and added to a 96-well cell culture plate at 50 μL per well. The culture plate was incubated in an incubator for 18 hours (37° C., 5% CO2).
(§5) 4. Compound preparation: The compounds were dissolved in DMSO to prepare stock solutions with an initial concentration of 10 mM.
(§6) Eight concentrations of the small molecule compounds were prepared: 300, 100, 30, 10, 3, 1, 0.3, and 0.1 nM.
(§7) 5. Sample addition operation: The prepared samples at different concentrations were added to a culture plate, with two replicate wells for each sample. The culture plate was incubated in an incubator for 6 days (37° C., 5% CO2).
6. […]
(§8) 7. Plate reading operation: The 96-well cell culture plate was placed in a microplate reader, and the chemiluminescence was measured with the microplate reader.
(§9) Data analysis: The data were processed and analyzed using Microsoft Excel and GraphPad Prism 5.

Colo205 = test: as above; format: cell-based; conditions: Homo sapiens, COLO 205, 144 h, read-out: Abs-IC50 Colo205
Method: as §1, §2, §3, §4, §5, §6, §7
6. […]
as §8, §9

JIMT-1 = test: In vitro proliferation inhibition of small molecule payloads, CTG, 6 days (3.2); format: cell-based; conditions: Homo sapiens, JIMT-1, 144 h, read-out: JIMT-1 IC50
Method: as §1, with “NCI-N87, JIMT-1,” for “NCI-N87”, “MBA-MB-231” for “Colo205”
1. Cell culture: NCI-N87, JIMT-1, and MBA-MB-231 cells were cultured in RPMI-1640 medium containing 10% FBS.
2. Cell preparation: NCI-N87, JIMT-1, and MBA-MB-231 cells in the logarithmic growth phase were washed once with PBS, then digested with 2-3 mL of trypsin for 2-3 minutes. […]
as §8, §9
8. Data analysis: The cell viability was calculated using the formula: Vsample/Vvehicle control x 100% where Vsample represents the reading from the drug-treated group, and Vvehicle control represents the average value of the vehicle control group. GraphPad Prism software was used to plot the S-shaped dose-viability curve using a nonlinear regression model, and the IC50 values were calculated.

advanced liver cancer [1] = conditions: patients with high GPC3 expression; cited from earlier work
advanced liver cancer [2] = conditions: Phase II; cited from earlier work

Which IC50 (NCI-N87) does the source give for `CC[C@@]1(O)C(=O)OCc2c1cc1n(c2=O)Cc2c-1nc1cc(F)c(C)c3c1c2[C@@H](NC(=O)CCO)CC3` [Preparation Example 8] here?
The IC50 was 15.1 nM.

With `CC[C@@]1(O)C(=O)OCc2c1cc1n(c2=O)Cc2c-1nc1cc(F)c(C)c3c1c2[C@@H](NC(=O)CO)CC3` [Preparation Example 9, DXd, reference compound] as the compound, how does the IC50 (Colo205) read?
The IC50 was 294 nM.

And the IC50 (NCI-N87)?
The IC50 was 13.9 nM.

For `CC[C@@]1(O)C(=O)OCc2c1cc1n(c2=O)Cc2c-1nc1cc(F)c(C)c3c1c2[C@@H](NC(=O)CCN)CC3` [Reference Example 1], which IC50 (JIMT-1) is on record?
The IC50 was 36.2 nM.

For Codrituzumab, which “disease progression (in words)” value (advanced liver cancer [1]) is on record?
Its value is “showed a trend of delayed disease progression”.

And the “survival (in words)” value (advanced liver cancer [2])?
The value was “did not demonstrate a statistically significant improvement in survival”.
